Experimental data taken from US10722527B2, “Abiraterone acetate lipid formulations” (Capsugel Belgium NV, priority 2015, dated 2020).
Read-outs that look alike come from different tables or passages of the source.

Assay: Equilibrium solubility of crystalline active in digestion medium / digested placebo LMP formulation
Type: physicochemical
Conditions: 37 °C, thermodynamic from solid
Protocol: In both cases, the majority of the active was solubilized in a lipid phase that phase-separated on centrifugation of the samples and most likely consisting of larger lipophilic colloids including multi-lamellar vesicles. Active drug in the aqueous phase (consisting of BS/PL mixed-micelles, lipid-enriched BS/PL mixed micelles and small vesicles) is considered the most readily available form for absorption.
In vitro digestion tests were performed as follows: 1 g of the active-containing formulation was dispersed in 40 mL fasted intestinal medium (2 mM Tris-maleate, 1.4 mM CaCl2.2H2O, and 150 mM NaCl, 3 mM sodium taurodeoxycholate and 0.75 mM phosphatidylcholine, 37° C.) using a pH-stat titrator as described by the LFCS Consortium (Williams, H D. et al., J. Pharm. Sci. 101 (2012), p. 3360-3380). […] Active concentration in the aqueous phase was measured by HPLC. […] Also thermodynamic solubility of the active was evaluated in digested placebo formulations for determining solubility in digested lipidic colloidal phases.

- solubility thermodynamic (pH 6.5, aqueous with cosolvent or surfactant or cyclodextrin, digested placebo LMP formulation, read-out: Equilibrium solubility of crystalline active in digested LMP formulations): 121 µg/mL
- solubility thermodynamic (pH 6.5, fassif, same fasted intestinal medium, without digested lipid formulation, read-out: Equilibrium solubility of the crystalline active in digestion medium): 27 µg/mL
SMILES: CC(=O)O[C@H]1CC[C@@]2(C)C(=CC[C@@H]3[C@@H]2CC[C@]2(C)C(c4cccnc4)=CC[C@@H]32)C1 [Abiraterone acetate]
